Source: PubChem BioAssay (NCI)
“And” between values parts separate entries of the source, which are not always exact repeats. Identical values can stand only once.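 Step 1: Grow cells in 96-well plates. Step 2: Expose to compound for 48 hours at 5 concentrations. Step 3: Interpolate endpoints linearly; if unreached, use highest concentration. Abbreviation: GI50, concentration required for 50% inhibition of growth. TGI: total growth inhibition.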

Legend:
Test in all cases: NCI tumour cell line growth inhibition, 48 h
[1] = test system: XF 498 CNS
[2] = test system: KM20L2 colon
[3] = test system: DMS 273 small cell lung
[4] = test system: DMS 114 small cell lung
[5] = test system: DLD-1 colon
[6] = test system: SNB-78 CNS
[7] = test system: LXFL 529 NSCLC
[8] = test system: MDA-N
[9] = test system: P388 leukemia
[10] = test system: RXF-631 renal

| SMILES | TGI [1] | TGI [2] | TGI [3] | TGI [4] | TGI [5] | TGI [6] [µM] | TGI [7] [µM] | TGI [8] | TGI [10] [µM] | other results |
| --- | --- | --- | --- | --- | --- | --- | --- | --- | --- | --- |
| Clc1ccccc1C1N2CCCCC2[C@@H]2c3[nH]c4ccccc4c3CCN12 (some centres not stated) | 35.4 µM | 34.1 µM | > 100 µM | 41.6 µM | 37.5 µM | 61.1 | > 100 | – | – | – |
| Nc1ccc(-c2ccc(Nc3cc(S(=O)(=O)O)c(N)c4c3C(=O)c3ccccc3C4=O)cc2)c(S(=O)(=O)O)c1 | – | – | – | – | – | – | – | > 100 µM | – | – |
| CC(C)[C@](O)(C(=O)OCC1=CC[N+]2([O-])CC[C@@H](O)[C@@H]12)[C@H](C)O (some centres not stated) | – | > 10000 µM | > 10000 µM | – | > 10000 µM | > 10000 | – | > 10000 µM | – | TGI [9]: > 10000 µM |
| CCCCCCCCCCCCC/C=C1\C[C@H](O)COC1=O | 30.5 µM | 31.7 µM | 28 µM | – | 32 µM | 33.9 | 29.8 | – | – | – |
| Cc1coc2c1CC1OC1(C)CCC1OC1(C)C2 (configuration not stated) | – | – | – | – | – | – | – | > 100 µM | – | – |
| COC1=C(C)C(=O)C2=C(C1=O)C(CO)N1C(C#N)C3CC4C(C1C2N1CCOC41)N3C (configuration not stated) | 0.0183 µM and 0.0285 µM | 0.83 µM and 0.104 µM | 0.0722 µM and 0.0676 µM | 0.0348 µM and 0.0203 µM | 0.836 µM and 5.2 µM | – | – | 0.0156 µM and < 0.0374 µM | 3.4 | GI50 [1]: 0.00607 µM; GI50 [2]: 0.0261 µM; GI50 [4]: 0.0141 µM |
| c1ccc(CCCC2Sc3cccc4cccc(c34)S2)cc1 | > 100 µM | > 100 µM | > 100 µM | > 100 µM | > 100 µM | > 100 | > 100 | – | – | – |
| N.N.N.N.N.N#N.[Cl-].[Os+7] | – | > 100 µM | > 100 µM | – | > 100 µM | > 100 | > 100 | – | – | GI50 [2]: > 100 µM; GI50 [3]: > 100 µM; GI50 [5]: > 100 µM; GI50 [6]: > 100 µM; GI50 [7]: > 100 µM |
| [C-]#[O+].[C-]#[O+].[Ir].[O-]c1ccc2ccccc2c1N=Nc1ccccc1 | 5.18 µM | – | – | 8.68 µM | 12.4 µM | 53 | – | 18.8 µM | – | GI50 [1]: 2.14 µM; GI50 [4]: 2.68 µM; GI50 [5]: 3.3 µM; GI50 [6]: 24.3 µM |
| C/C(=C1/N=C(c2ccccc2)OC1=O)c1ccc(C)cc1 | – | – | – | – | – | – | – | > 100 µM | – | – |
| CCOC(=O)C12CCSC1C1(C#N)C(C#N)=CC2(N=P(c2ccccc2)(c2ccccc2)c2ccccc2)n2c(=O)n(-c3ccccc3)c(=O)n21 (configuration not stated) | 78.3 µM | > 100 µM | – | 96.6 µM | > 100 µM | > 100 | > 100 | – | > 100 | – |
| Cc1cccc(Cl)c1NC(N)=S | – | > 100 µM | > 100 µM | 82 µM | > 100 µM | > 100 | > 100 | – | > 100 | – |
| Cc1ccc(/C=N/NS(=O)(=O)c2ccccc2)cc1 | > 100 µM | > 100 µM | > 100 µM | > 100 µM | > 100 µM | > 100 | > 100 | – | > 100 | – |
| CCOc1ccccc1NC(=O)C(=O)C(C(=O)c1ccc2ccccc2c1)C1OC(=O)c2ccccc21 (configuration not stated) | – | 77 µM | 31.7 µM | 33.6 µM | 33.4 µM | 75.8 | 19.4 | – | 22.4 | – |
| NC1=NN(c2ccccc2)C(=O)C1/C(=N\NC(=O)c1cc2ccccc2cc1O)C(=O)Nc1nc([N+](=O)[O-])cs1 (configuration not stated) | > 100 µM | > 100 µM | > 73.6 µM | 45.6 µM | > 77.2 µM | > 100 | > 100 | – | > 71.7 | – |
| COc1cc([N+](=O)[O-])c(S(=O)(=O)O)cc1N | – | – | – | – | – | – | – | > 100 µM | – | – |
| C[n+]1c2cc(N)ccc2cc2ccc(N)cc21 (tested in a mixture with another compound) | – | – | – | – | – | – | – | 2.06 µM | – | GI50 [8]: 0.64 µM |
| CC1(C(=O)NCCN(CCNC(=O)C2(C)CC3(C)CC(C)(C2)C(=O)NC3=O)CCNC(=O)C2(C)CC3(C)CC(C)(C2)C(=O)NC3=O)CC2(C)CC(C)(C1)C(=O)NC2=O (configuration not stated) | > 100 µM | > 100 µM | > 100 µM | > 100 µM | – | > 100 | > 100 | – | – | – |
| C/C=C/C(=O)[C@@H](O)C(C)C | – | > 100 µM | > 100 µM | – | – | > 100 | > 100 | – | – | – |

| SMILES | TGI [1] | TGI [2] | TGI [3] | TGI [4] | TGI [5] | TGI [6] [µM] | TGI [7] [µM] | TGI [8] | TGI [10] [µM] | other results |
| --- | --- | --- | --- | --- | --- | --- | --- | --- | --- | --- |
| COc1ccc(C(=O)Nc2ccc(S(=O)(=O)NCC(=O)O)cc2)cc1 | > 100 µM | > 100 µM | > 100 µM | – | > 100 µM | – | > 100 | – | > 100 | – |
| O=C(O)c1c([N+](=O)[O-])cc(C(F)(F)F)cc1[N+](=O)[O-] | > 100 µM | > 100 µM | > 100 µM | – | – | > 100 | > 100 | – | > 100 | – |
| O=C(N[C@@H]1C=CCC[C@@H]1c1ccccc1)OCc1ccccc1 | 35.9 µM | 40.6 µM | 32.4 µM | 45.1 µM | > 85.6 µM | 93 | 49.8 | – | – | – |
| CSc1c(S(C)=O)[nH]c2cc(Br)cc(Br)c12 (configuration not stated) | – | – | 35.1 µM | – | 51.9 µM | 57 | 48.8 | – | – | – |
| CC(N)(Cc1c[nH]c2ccccc12)C(=O)O (configuration not stated) | – | – | – | – | – | – | – | > 100 µM | – | – |
| O=c1c2cc(Br)ccc2nc(-c2ccccc2)n1NCC1(O)OCC(O)C(O)C1O (configuration not stated) | – | > 100 µM | > 100 µM | > 100 µM | – | > 100 | > 100 | – | – | – |
| COc1ccc2[nH]c3c(C)c4cc[n+](C)cc4c(C)c3c2c1 | – | 34.2 µM [middle of 4 runs] | – | 2.52 µM and 1.72 µM and 1.56 µM | – | – | 3.41 | > 100 µM and 84.9 µM and 63 µM | – | GI50 [2]: 1.68 µM and 1.35 µM; GI50 [3]: 0.502 µM and 0.189 µM; GI50 [4]: 0.104 µM; GI50 [9]: 1.78 µM; TGI [9]: 19.1 µM and 10.8 µM and 16.5 µM; GI50 [5]: 0.889 µM and 0.835 µM; GI50 [8]: 9.89 µM and 2.19 µM and 14.7 µM; GI50 [6]: 0.478 µM and 0.243 µM; GI50 [7]: 0.383 µM |
| S=c1nc[nH]c2nc[nH]c12 | 163 µM | 691 µM | 565 µM | 385 µM | > 750 µM | 670 | > 720 | 636 µM and > 750 µM | – | TGI [9]: 242 µM; GI50 [8]: 7.85 µM |
| CN(C)CCNC(=O)c1cccc2ccc(-c3cccnc3)nc12 | – | – | 13.1 µM | 18.6 µM | 60.4 µM | 72.4 | – | – | 23.1 | – |
| O=C(c1ccccn1)c1nc(-c2ccc(Cl)c(Cl)c2)nc2ccc(Cl)cc12 | 55.3 µM | > 100 µM | > 100 µM | > 100 µM | > 100 µM | > 100 | > 100 | – | – | – |
| CCCCNC(=O)OCC(COc1ccccc1OC)OC(=O)NCCCC (configuration not stated) | > 100 µM | > 100 µM | > 100 µM | > 100 µM | > 100 µM | > 100 | > 100 | – | > 100 | – |
| COc1ccc(OC)c(/C=C/C(=O)C(C)(C)C)c1 | – | 50.3 µM | 50.9 µM | 32.1 µM | 48.4 µM | – | 36.4 | – | 85.1 | – |
| CC(C)[C@H]1CO[C@@H]2O[C@H](C)CC(=O)N21 | – | > 100 µM | – | > 100 µM | > 100 µM | – | > 100 | – | – | – |
| O=C1NC2(CCCC2)/C(=N\O)C12CCCC2 | > 100 µM | – | > 100 µM | > 100 µM | > 100 µM | > 100 | > 100 | – | – | – |
| C=CC1(c2ccccc2Cl)N/C(=C/OCC)CO1 (configuration not stated) | > 100 µM | > 100 µM | > 100 µM | > 100 µM | > 100 µM | > 100 | > 100 | – | > 100 | – |
| CCOC(=O)C1(Br)C(c2ccccc2)NC(=O)N(C2OC(COC(=O)c3ccccc3)C(OC(=O)c3ccccc3)C2OC(=O)c2ccccc2)C1(C)Br (configuration not stated) | – | > 100 µM | > 100 µM | 49.6 µM | > 100 µM | – | > 75.7 | – | 50 | – |
| CN(C)c1ccc(/C=C/c2ccnc3ccc4ccccc4c23)cc1 | – | – | – | – | – | – | – | > 100 µM | – | – |
| NC(=S)N/N=C1\C(=O)N(CCc2ccccc2)C(=O)C1C(=O)NCCc1ccccc1 (configuration not stated) | – | > 100 µM | > 100 µM | > 100 µM | – | > 100 | > 100 | – | – | – |
| NCCn1ccc(NC(c2ccccc2)(c2ccccc2)c2ccccc2)nc1=O | 26.1 µM | 32.2 µM | – | 38.6 µM | > 100 µM | 42.5 | 30.3 | – | – | – |
